From ChEMBL document CHEMBL1833843, “Diarylpropanes and an arylpropyl quinone from Combretum griffithii” (J Nat Prod, 2011)
≈ marks a conversion by molar mass, not a printed value. Calls of active or inactive are those of the source. No cut-off for these calls is given here.

Experiments:
KB = assay: Cytotoxicity against human KB cells by sulforhodamine B assay; format: functional, cell-based
NCI-H187 = assay: Cytotoxicity against human NCI-H187 cells by sulforhodamine B assay; format: functional, cell-based
MCF7 = assay: Cytotoxicity against human MCF7 cells by sulforhodamine B assay; format: functional, cell-based
Plasmodium falciparum [1] = assay: Antimalarial activity against multidrug-resistant Plasmodium falciparum K1 assessed as [3H]-hypoxanthine uptake at 10 ug/mL after 24 hrs by scintillation counting; format: functional, organism-based
[2] = test system: Mycobacterium tuberculosis; assay: Antimycobacterial activity against Mycobacterium tuberculosis H37Ra by microplate alamar blue assay; format: functional
Plasmodium falciparum [3] = assay: Antimalarial activity against multidrug-resistant Plasmodium falciparum K1 assessed as [3H]-hypoxanthine uptake after 24 hrs by scintillation counting

With `COC1=CC(=O)C(CCCc2ccc(O)c(OC)c2)=CC1=O` [GRIFFITHANE D] the IC50 (KB) was 1.42 µg/mL (≈ 4.7 µM), the IC50 (NCI-H187) was 1.08 µg/mL (≈ 3.57 µM) and the IC50 (MCF7) was 6.75 µg/mL (≈ 22.3 µM). For the same compound, the Activity (Plasmodium falciparum [1]) was “inactive”.
`COc1cc(CCCc2ccc(OC)c(O)c2OC)ccc1O` [GRIFFITHANE B] was tested, and the IC50 (KB) was 5.67 µg/mL (≈ 17.8 µM) and the Activity (Plasmodium falciparum [1]) was “inactive”.
`NNC(=O)c1ccncc1` [ISONIAZID] was tested, and the MIC [2] was 0.23 µg/mL (≈ 1.68 µM).
With `COc1cc(O)c(O)cc1CCCc1ccc(OC)c(OC)c1` the Activity (Plasmodium falciparum [1]) was “inactive”.
`C[C@H]1[C@@H](O)O[C@@H]2O[C@@]3(C)CC[C@H]4[C@H](C)CC[C@@H]1[C@@]24OO3` [ARTENIMOL] was tested, and the IC50 (Plasmodium falciparum [3]) was 1 ng/mL (≈ 0.00352 µM).
With `COc1cc(CCCc2cc(OC)c(O)cc2OC)ccc1O` [GRIFFITHANE A] the IC50 (KB) was 2.13 µg/mL (≈ 6.69 µM) and the Activity (Plasmodium falciparum [1]) was “inactive”.
In the case of `COc1ccc(CCCc2ccc(O)c(OC)c2)c(O)c1`, the IC50 (KB) is reported as 2.18 µg/mL (≈ 7.56 µM), the MIC [2] is reported as 3.13 µg/mL (≈ 10.9 µM) and the Activity (Plasmodium falciparum [1]) is reported as “inactive”.
